Each block holds one compound with its values, some of them ahead of it.
Target: T1, GhmMDH1 (Gossypium hirsutum, UniProt A0A1U8J4P3)
T1 construct: gene LOC107903665; N-terminus […]; (27-residue mitochondrial target signal)
Assay: NADH/NAD+ absorbance at […] nm, nonlinear regression
Type: biochemical
Conditions: 50 mM MOPS pH 7.5, 25 °C

T1 sequence (A0A1U8J4P3 entry or part of it): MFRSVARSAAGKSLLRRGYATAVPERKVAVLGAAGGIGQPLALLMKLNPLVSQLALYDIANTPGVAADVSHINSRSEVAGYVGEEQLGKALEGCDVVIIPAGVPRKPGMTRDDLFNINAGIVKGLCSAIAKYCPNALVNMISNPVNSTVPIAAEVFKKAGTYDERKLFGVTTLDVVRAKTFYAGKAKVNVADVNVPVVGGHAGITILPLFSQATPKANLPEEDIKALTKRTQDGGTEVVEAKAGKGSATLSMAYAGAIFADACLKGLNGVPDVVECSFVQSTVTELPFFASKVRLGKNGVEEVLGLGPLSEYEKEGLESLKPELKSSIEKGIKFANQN

Km (1.0 mM NAD+): 2910 ± 290 µM
Compound: O=C(O)C[C@H](O)C(=O)O [Malate]

Km (0.2 mM NADH): 132 ± 25 µM
Compound: O=C(O)CC(=O)C(=O)O [OAA]

Km (0.5 mM OAA): 107 ± 19 µM
Compound: NC(=O)C1=CN([C@@H]2O[C@H](COP(=O)(O)OP(=O)(O)OC[C@H]3O[C@@H](n4cnc5c(N)ncnc54)[C@H](O)[C@@H]3O)[C@@H](O)[C@H]2O)C=CC1 [NADH]

Km (50 mM L-malate): 766 ± 84 µM
Compound: NC(=O)c1ccc[n+]([C@@H]2O[C@H](COP(=O)(O)OP(=O)(O)OC[C@H]3O[C@@H](n4cnc5c(N)ncnc54)[C@H](O)[C@@H]3O)[C@@H](O)[C@H]2O)c1 [NAD^+]
